A short description of data set [1]: Drug level in BALB/c mouse bile treated with 7-mono-O-(beta-hydroxyethyl)-rutoside assessed as relative metabolite level at 500 mg/kg, ip measured after 60 mins by LC-DAD-TOF-MS analysis. It counts as ADME, organism-based. Also noted: dose 500 mg/kg, route intraperitoneal. Particulars: in vivo, 1 h.
Data set [2] in a line: Drug metabolism in BALB/c mouse bile assessed as 2-(3,4-dimethoxyphenyl)-5-hydroxy-7-(2-hydroxyethoxy)-3-((2S,3R,4S,5S,6R)-3,4,5-trihydroxy-6-(hydroxymethyl)tetrahydro-2H-pyran-2-yloxy)-4H-chromen-4-one formation at 500 mg/kg, ip measured after 240 mins by LC-DAD-TOF-MS analysis. It counts as ADME, organism-based. Also noted: dose 500 mg/kg, route intraperitoneal. Particulars: in vivo.

Data set [3] in a line: Drug metabolism in BALB/c mouse bile assessed as (S)-4-amino-5-((R)-1-(carboxymethylamino)-3-(2,3-dihydroxy-6-(5-hydroxy-7-(2-hydroxyethoxy)-4-oxo-3-((2S,3R,4S,5S,6R)-3,4,5-trihydroxy-6-(((2R,3R,4R,5R,6S)-3,4,5-trihydroxy-6-methyltetrahydro-2H-pyran-2-yloxy)methyl)tetrahydro-2H-pyran-2-yloxy)-4H-chromen-2-yl)phenylthio)-1-oxopropan-2-ylamino)-5-oxopentanoic acid formation at 500 mg/kg, ip measured after 60 mins by LC-DAD-TOF-MS analysis. Particulars: in vivo, 1 h. It counts as ADME, organism-based. Also on record: dose 500 mg/kg, route intraperitoneal.

Data set [4] in a line: Drug metabolism in BALB/c mouse bile assessed as (2S,3S,4S,5R,6S)-6-(5-(7-(carboxymethoxy)-5-hydroxy-4-oxo-3-((2S,3R,4S,5S,6R)-3,4,5-trihydroxy-6-(((2R,3R,4R,5R,6S)-3,4,5-trihydroxy-6-methyltetrahydro-2H-pyran-2-yloxy)methyl)tetrahydro-2H-pyran-2-yloxy)-4H-chromen-2-yl)-2-methoxyphenoxy)-3,4,5-trihydroxytetrahydro-2H-pyran-2-carboxylic acid formation at 500 mg/kg, ip measured after 60 mins by LC-DAD-TOF-MS analysis. It counts as ADME, organism-based. Also noted: dose 500 mg/kg, route intraperitoneal. Particulars: in vivo, 1 h.

The nature of data set [5]: Half life in mouse plasma. It counts as ADME, cell-free.
The nature of data set [6]: Drug metabolism in BALB/c mouse bile assessed as 2-(2-(3,4-dihydroxyphenyl)-5-hydroxy-4-oxo-3-((2S,3R,4S,5S,6R)-3,4,5-trihydroxy-6-(((2R,3R,4R,5R,6S)-3,4,5-trihydroxy-6-methyltetrahydro-2H-pyran-2-yloxy)methyl)tetrahydro-2H-pyran-2-yloxy)-4H-chromen-7-yloxy)acetic acid formation at 500 mg/kg, ip measured after 60 mins by LC-DAD-TOF-MS analysis. Particulars: in vivo, 1 h. Also on record: dose 500 mg/kg, route intraperitoneal. It counts as ADME, organism-based.

Data set [7] in a line: Drug metabolism in BALB/c mouse bile assessed as 5-hydroxy-2-(3-hydroxy-4-methoxyphenyl)-7-(2-hydroxyethoxy)-3-((2S,3R,4S,5S,6R)-3,4,5-trihydroxy-6-(hydroxymethyl)tetrahydro-2H-pyran-2-yloxy)-4H-chromen-4-one formation at 500 mg/kg, ip measured after 240 mins by LC-DAD-TOF-MS analysis. It counts as ADME, organism-based. Also on record: dose 500 mg/kg, route intraperitoneal. Particulars: in vivo.

Data set [8] in a line: Half life in mouse heart. It counts as ADME.
A short description of data set [9]: Drug metabolism in BALB/c mouse bile assessed as 2-(5-hydroxy-2-(3-hydroxy-4-methoxyphenyl)-4-oxo-3-((2S,3R,4S,5S,6R)-3,4,5-trihydroxy-6-(((2R,3R,4R,5R,6S)-3,4,5-trihydroxy-6-methyltetrahydro-2H-pyran-2-yloxy)methyl)tetrahydro-2H-pyran-2-yloxy)-4H-chromen-7-yloxy)acetic acid formation at 500 mg/kg, ip measured after 60 mins by LC-DAD-TOF-MS analysis. It counts as ADME, organism-based. Also noted: dose 500 mg/kg, route intraperitoneal. Particulars: in vivo, 1 h.

A short description of data set [10]: Drug metabolism in BALB/c mouse bile assessed as 2-(3,4-dimethoxyphenyl)-5-hydroxy-7-(2-hydroxyethoxy)-3-((2S,3R,4S,5S,6R)-3,4,5-trihydroxy-6-(((2R,3R,4R,5R,6S)-3,4,5-trihydroxy-6-methyltetrahydro-2H-pyran-2-yloxy)methyl)tetrahydro-2H-pyran-2-yloxy)-4H-chromen-4-one formation at 500 mg/kg, ip measured after 60 mins by LC-DAD-TOF-MS analysis. It counts as ADME, organism-based. Also on record: dose 500 mg/kg, route intraperitoneal. Particulars: in vivo, 1 h.

A short description of data set [11]: Drug metabolism in BALB/c mouse bile assessed as (2S,3S,4S,5R,6S)-6-(5-(7-(carboxymethoxy)-5-hydroxy-4-oxo-3-((2S,3R,4S,5S,6R)-3,4,5-trihydroxy-6-(((2R,3R,4R,5R,6S)-3,4,5-trihydroxy-6-methyltetrahydro-2H-pyran-2-yloxy)methyl)tetrahydro-2H-pyran-2-yloxy)-4H-chromen-2-yl)-2-hydroxyphenoxy)-3,4,5-trihydroxytetrahydro-2H-pyran-2-carboxylic acid formation at 500 mg/kg, ip measured after 60 mins by LC-DAD-TOF-MS analysis. It counts as ADME, organism-based. Also noted: dose 500 mg/kg, route intraperitoneal. Particulars: in vivo, 1 h.

A short description of data set [12]: Drug metabolism in BALB/c mouse bile assessed as (2S,3S,4S,5R,6S)-3,4,5-trihydroxy-6-(5-(5-hydroxy-7-(2-hydroxyethoxy)-4-oxo-3-((2S,3R,4S,5S,6R)-3,4,5-trihydroxy-6-(((2R,3R,4R,5R,6S)-3,4,5-trihydroxy-6-methyltetrahydro-2H-pyran-2-yloxy)methyl)tetrahydro-2H-pyran-2-yloxy)-4H-chromen-2-yl)-2-methoxyphenoxy)tetrahydro-2H-pyran-2-carboxylic acid formation at 500 mg/kg, ip measured after 60 mins by LC-DAD-TOF-MS analysis. It counts as ADME, organism-based. Also noted: dose 500 mg/kg, route intraperitoneal. Particulars: in vivo, 1 h.

Data set [13] can be described thus: Drug metabolism in BALB/c mouse bile assessed as (2S,2'S,3S,3'S,4S,4'S,5R,5'R,6S,6'S)-6,6'-(4-(5-hydroxy-7-(2-hydroxyethoxy)-4-oxo-3-((2S,3R,4S,5S,6R)-3,4,5-trihydroxy-6-(((2R,3R,4R,5R,6S)-3,4,5-trihydroxy-6-methyltetrahydro-2H-pyran-2-yloxy)methyl)tetrahydro-2H-pyran-2-yloxy)-4H-chromen-2-yl)-1,2-phenylene)bis(oxy)bis(3,4,5-trihydroxytetrahydro-2H-pyran-2-carboxylic acid) formation at 500 mg/kg, ip measured after 60 mins by LC-DAD-TOF-MS analysis. It counts as ADME, organism-based. Also noted: dose 500 mg/kg, route intraperitoneal. Particulars: in vivo, 1 h.

Data set [14] in a line: Retention time of the compound by LC-DAD-TOF-MS analysis. It counts as physicochemical.
Data set [15] in a line: Drug metabolism in BALB/c mouse bile assessed as 5-hydroxy-2-(3-hydroxy-4-methoxyphenyl)-7-(2-hydroxyethoxy)-3-((2S,3R,4S,5S,6R)-3,4,5-trihydroxy-6-(((2R,3R,4R,5R,6S)-3,4,5-trihydroxy-6-methyltetrahydro-2H-pyran-2-yloxy)methyl)tetrahydro-2H-pyran-2-yloxy)-4H-chromen-4-one formation at 500 mg/kg, ip measured after 60 mins by LC-DAD-TOF-MS analysis. It counts as ADME, organism-based. Also on record: dose 500 mg/kg, route intraperitoneal. Particulars: in vivo, 1 h.

Data set [16] in a line: Drug level in BALB/c mouse bile assessed as compound formation treated with monoHER at 500 mg/kg, ip measured after 60 mins by LC-DAD-TOF-MS analysis. It counts as ADME, organism-based. Particulars: in vivo, 1 h. Also on record: dose 500 mg/kg, route intraperitoneal.
Data set [17] in a line: Drug level in BALB/c mouse bile assessed as compound formation treated with monoHER at 500 mg/kg, ip measured after 240 mins by LC-DAD-TOF-MS analysis. It counts as ADME, organism-based. Also noted: dose 500 mg/kg, route intraperitoneal. Particulars: in vivo, 4 h.

As a reminder, the half-life is the time in which the quantity being followed falls by half. Take `C[C@@H]1O[C@@H](OC[C@H]2O[C@@H](Oc3c(-c4ccc(O)c(O)c4)oc4cc(OCCO)cc(O)c4c3=O)[C@H](O)[C@@H](O)[C@@H]2O)[C@H](O)[C@H](O)[C@H]1O` [MONOXERUTIN]: the “Relative metabolite level in bile” value in data set [1] is reported as 29%. Further, the Drug metabolism result in data set [2], in data set [3], in [4], in data set [6], in data set [7] and in data set [9] was “metabolite_detected” in each case. Moreover, the Drug metabolism entry in data set [10], in [11], in [12], in data set [13] and in data set [15] was “metabolite_detected” each time. The half-life in [5] was 0.197 h; in [8] it was 0.27 h. The compound further registered a Retention_time in data set [14] of 8.5 min.

In the case of `C[C@@H]1O[C@@H](OC[C@H]2O[C@@H](Oc3c(-c4ccc(O)c(O)c4SC[C@H](NC(=O)CC[C@H](N)C(=O)O)C(=O)NCC(=O)O)oc4cc(OCCO)cc(O)c4c3=O)[C@H](O)[C@@H](O)[C@@H]2O)[C@H](O)[C@H](O)[C@H]1O`, the “Relative metabolite level in bile” value in data set [1] worked out at 0.6%. For the same compound, the Drug metabolism entry in data set [16] is reported as “metabolite_detected”. Further, in data set [14], the Retention_time amounted to 3.4 min.

In the case of `C[C@@H]1O[C@@H](OC[C@H]2O[C@@H](Oc3c(-c4ccc(O)c(O)c4)oc4cc(OCC(=O)O)cc(O)c4c3=O)[C@H](O)[C@@H](O)[C@@H]2O)[C@H](O)[C@H](O)[C@H]1O`, in data set [1], the “Relative metabolite level in bile” value is 2%. In [16], the Drug metabolism entry is given as “metabolite_detected”. The same compound came in with a Retention_time in data set [14] of 9.7 min.

In the case of `COc1ccc(-c2oc3cc(OCCO)cc(O)c3c(=O)c2O[C@@H]2O[C@H](CO[C@@H]3O[C@@H](C)[C@H](O)[C@@H](O)[C@H]3O)[C@@H](O)[C@H](O)[C@H]2O)cc1O`, in data set [1], the “Relative metabolite level in bile” value is on record as 40%. In [16], the Drug metabolism result is given as “metabolite_detected”. Moreover, in data set [14], the Retention_time turned out to be 11.1 min.

For `C[C@@H]1O[C@@H](OC[C@H]2O[C@@H](Oc3c(-c4ccc(O[C@@H]5O[C@H](C(=O)O)[C@@H](O)[C@H](O)[C@H]5O)c(O[C@@H]5O[C@H](C(=O)O)[C@@H](O)[C@H](O)[C@H]5O)c4)oc4cc(OCCO)cc(O)c4c3=O)[C@H](O)[C@@H](O)[C@@H]2O)[C@H](O)[C@H](O)[C@H]1O`, the “Relative metabolite level in bile” value in [1] turned out to be 0.7%. In data set [16], the Drug metabolism result is recorded as “metabolite_detected”. This compound gave a Retention_time in [14] of 7.1 min.

On to `C[C@@H]1O[C@@H](OC[C@H]2O[C@@H](Oc3c(-c4ccc(O)c(O[C@@H]5O[C@H](C(=O)O)[C@@H](O)[C@H](O)[C@H]5O)c4)oc4cc(OCC(=O)O)cc(O)c4c3=O)[C@H](O)[C@@H](O)[C@@H]2O)[C@H](O)[C@H](O)[C@H]1O`, for which the “Relative metabolite level in bile” value in [1] stood at 0.3%. In addition, in data set [16], the Drug metabolism result is recorded as “metabolite_detected”. For the same compound, the Retention_time in data set [14] is listed as 7.8 min.

Regarding `COc1ccc(-c2oc3cc(OCCO)cc(O)c3c(=O)c2O[C@@H]2O[C@H](CO)[C@@H](O)[C@H](O)[C@H]2O)cc1O`, the Drug metabolism result in [17] is given as “metabolite_detected”. Moreover, in [1], the “Relative metabolite level in bile” value came to 0.9%. The Retention_time in [14] was found to be 7.6 min.

On to `COc1ccc(-c2oc3cc(OCCO)cc(O)c3c(=O)c2O[C@@H]2O[C@H](CO[C@@H]3O[C@@H](C)[C@H](O)[C@@H](O)[C@H]3O)[C@@H](O)[C@H](O)[C@H]2O)cc1OC`, for which the “Relative metabolite level in bile” value in data set [1] turned out to be 0.5%. In data set [16], the Drug metabolism result is given as “metabolite_detected”. For the same compound, the Retention_time in data set [14] was found to be 14.8 min.

As for `COc1cccc2c1C(=O)c1c(O)c3c(c(O)c1C2=O)C[C@@](O)(C(=O)CO)C[C@@H]3O[C@H]1C[C@H](N)[C@H](O)[C@H](C)O1` [DOXORUBICIN], the half-life in data set [5] is 12.6 h; in [8], 11.5 h.

For the compound `COc1ccc(-c2oc3cc(OCC(=O)O)cc(O)c3c(=O)c2O[C@@H]2O[C@H](CO[C@@H]3O[C@@H](C)[C@H](O)[C@@H](O)[C@H]3O)[C@@H](O)[C@H](O)[C@H]2O)cc1O[C@@H]1O[C@H](C(=O)O)[C@@H](O)[C@H](O)[C@H]1O`, in data set [1], the “Relative metabolite level in bile” value is reported as 0.4%. Moreover, the Drug metabolism result in data set [16] is “metabolite_detected”. The compound further showed a Retention_time in [14] of 8.8 min.

Consider `COc1ccc(-c2oc3cc(OCCO)cc(O)c3c(=O)c2O[C@@H]2O[C@H](CO)[C@@H](O)[C@H](O)[C@H]2O)cc1OC`, for which the Drug metabolism entry in data set [17] is on record as “metabolite_detected”. For the same compound, the “Relative metabolite level in bile” value in [1] was 0.6%. The compound also displayed a Retention_time in [14] of 12.5 min.

For `COc1ccc(-c2oc3cc(OCC(=O)O)cc(O)c3c(=O)c2O[C@@H]2O[C@H](CO[C@@H]3O[C@@H](C)[C@H](O)[C@@H](O)[C@H]3O)[C@@H](O)[C@H](O)[C@H]2O)cc1O`, in [1], the “Relative metabolite level in bile” value worked out at 5%. Besides, the Drug metabolism result in data set [16] is given as “metabolite_detected”. In [14], this compound returned a Retention_time of 12.3 min.

For `COc1ccc(-c2oc3cc(OCCO)cc(O)c3c(=O)c2O[C@@H]2O[C@H](CO[C@@H]3O[C@@H](C)[C@H](O)[C@@H](O)[C@H]3O)[C@@H](O)[C@H](O)[C@H]2O)cc1O[C@@H]1O[C@H](C(=O)O)[C@@H](O)[C@H](O)[C@H]1O`, the “Relative metabolite level in bile” value in data set [1] is recorded as 9%. Moreover, the Drug metabolism entry in data set [16] is “metabolite_detected”. Further, in data set [14], the Retention_time worked out at 6.9 min.

The values above are taken from ChEMBL document CHEMBL3525923, “Identification of the metabolites of the antioxidant flavonoid 7-mono-O-(β-hydroxyethyl)-rutoside in mice” (Drug Metab Dispos, 2011).
